# Columns and labels:
# [1] = Efficiency of encapsulation / entrapment of drugs in DPPC:oleic acid:Arg (1:1:1) liposomes; type: physicochemical; settings: 10 mg/ml DPPC:oleic acid:Arg (1:1:1) liposomes
# Experimental: A number of drugs were encapsulated with 10 mg/ml DPPC:oleic acid:[MUT]:1:1) liposomes to illustrate medicament encapsulation for use as a drug delivery system.
# in vivo = settings: rat, iv, 5 mg/kg
# Experimental: The bioavailibility of indomethacin in a gel formulation was compared with that of a suspenison of indomethacin, both being compared with an IV dose. Rats were dosed with 5 mg/Kg of indomethacin. Oleic acid, arginine and phosphatide #5 (described above) in the a the ratio 1:1:1 was used to make the gel. […] Blood levels were measured 0-30 hours.
structure (smiles),measurement,setting,value
CC(C(=O)O)c1ccc(-c2ccccc2)c(F)c1 (stereo not drawn) [Flurbiprofen],% Entrapment,[1]; pH 7.8 PBS,90%
COc1ccc2c(c1)c(CC(=O)O)c(C)n2C(=O)c1ccc(Cl)cc1 [indomethacin],C0,in vivo,117 µg/mL
CNCC(O)c1ccc(OC(=O)C(C)(C)C)c(OC(=O)C(C)(C)C)c1 (stereo not drawn) [Dipivalyl Epinephrine],% Entrapment,[1]; pH 7.1 PBS,80%
